Data taken from US20250381110A1, “SKIN CARE COMPOSITION AND METHOD OF USING THE SAME” (THE PROCTER & GAMBLE COMPANY, priority 2024, published 2025).

Tests used:
IL-6 = test: SASP assessment, IL-6 mRNA by qPCR; type: cell-based, human
Description: Quantibody Human Cytokine Arrays for 20 cytokines (RayBiotech; QAH-CYT-1) were performed using conditioned media collected from primary dermal fibroblasts culture. mRNA levels of human IL-6 and IL-8 were measured by quantitative polymerase chain reaction (qPCR. Total RNA was extracted using RNeasy Mini Kit (QIAGEN, 74104). From 500 ng of total RNA, first-strand complementary DNA (cDNA) was produced using SuperScript III reverse transcriptase (Invitrogen, 18080044). Quantitative PCR was performed in a StepOnePlus Real-Time PCR system (Applied Biosystems) using Power SYBR Green PCR Master Mix (Applied Biosystems, 4367659). mRNA levels were determined with the […] and normalised to GAPDH levels.

[1] = system: primary human dermal fibroblasts (HDFs); test: Mitophagy assay, mt-mKeima reporter, fluorescence microscopy; type: cell-based
Description: Primary human dermal fibroblasts (HDFs) were cultured in DMEM supplemented with 10 percent FBS, 100 units per milliliter penicillin/streptomycin, and 2 millimolar L-glutamine in a humidified atmosphere containing 5 percent carbon dioxide at 37 degrees Celsius. Stable expression of mt-mKeima was achieved through retroviral transduction (Kelly et al.). Cells stably expressing mt-mKeima were seeded in a 35 mm glass bottom dish (MatTek). The live-cell mt-Keima signal was obtained via widefield microscopy using the DMi8 and 2 filtersets to obtain the acidic (561 nm excitation, “red”) and pH-neutral (480 nm, “green”) mKeima signals. Using FIJI/ImageJ, a macro was applied to the mt-mKeima signal to extract mitolysosomes. In detail, images were masked by applying MaxEntropy threshold to the images obtained with 561 nm excitation to remove low mt-mKeima red signal and background. Then, images were generated by subtracting the signal of green mKeima from that of red mKeima. Resulting images were binarised with the MaxEntropy threshold algorithm to extract mitolysosomes. Mitophagy events were determined as the number of puncta per cell. Cells stably expressing pSu9-Halo-GFP seeded in a 35 glass bottom dish (MatTek) were stained with 1 μM Halo TMR ligand (Promega, G8251) for 48 h. Fluorescence images were obtained using an LSM700 confocal microscope (Zeiss). The number of mitolysosomes (GFP-Halo+puncta) per cell was quantified using proprietary plugin in Fiji/ImageJ. Both mKeima and pSu9-Halo-GFP reporters directly visualize frequency of mitophagy events (e.g., mitochondria delivered by autophagolysosomes to lysosomes for degradation) (Kelly et al.).

[2] = system: human dermal fibroblasts (HDFs); test: Cell motility assay; type: cell-based; conditions: HDFs from aged donors; 30 μM, 7 h
Description: HDFs were seeded in glass bottomed multiwell plates (Greiner, 662892), 24 h prior to imaging. Images were captured using a Zeiss CellDiscoverer 7 with a 5x/0.35NA lens with a 2× optovar using oblique mode brightfield with a Hamamatsu Fusion camera every 300 seconds for 5 h (1 ms exposure time), capturing 2 random fields per well. Cells were maintained at 37° C., 5% CO2 throughout experiments. 6 cells were analysed per field using the Manual Tracking plugin in FIJI/ImageJ, and shown as mean movement per cell recorded.

[3] = system: human dermal fibroblasts (HDFs); test: EdU incorporation assay; type: cell-based; conditions: HDFs from aged donors; 30 μM, 7 h
[4] = system: human dermal fibroblasts (HDFs); test: Mitochondrial mass by Mitotracker Green staining; type: cell-based; conditions: HDFs from aged donors; 30 μM, 7 h
Description: The Seahorse XF Cell Mito Stress Test Kit (Agilent) was used to measure oxygen consumption rates in adult dermal fibroblasts. One day prior to the assay cells were seeded at either 4000 per well or 3000 per well. Where indicated, fibroblast plates were subjected to 20Gy IR 2 h before assay. […] HDFs were stained with 100 nM Mitotracker Green for mitochondrial density measurement. The Mito Stress Test was performed as per manufacturer's guidelines on a Seahorse XF96 Extracellular Flux analyser using previously optimized conditions. Following assay completion, cells were fixed in 4% PFA for 20 minutes. PFA was then removed, and cells were washed twice with PBS. Following fixation, cells were stained with Hoescht nucleic acid stain (Invitrogen) for 10 min before being washed twice in PBS. Fluorescence was subsequently measured using the PHERAstar FSX plate reader (BMG LABTECH) at 350/460 nm for normalization purposes. Following normalization, OCR measurements were interpreted from data generated from the Agilent Seahorse Wave software version 2.6.3.5. Basal respiration data in unstressed conditions is presented. OCR measurements were further normalised to mitochondrial density to obtain ATP production (pmol/min/mitochondria).

[5] = HDFs from aged donors, 30 μM, 7 h

In the case of `CC(=O)Oc1ccc(N2C(=O)C3C(Cc4ccccc4)NC4(C(=O)Nc5c4ccc(Cl)c5C)C3C2=O)cc1` (centres unmarked) [STOCKIN-57543], the “levels of the SASP factor IL-6 (mRNA)” value (IL-6; [5]) is reported as “decreasing levels of the SASP factor IL-6”, the “IR-associated increase in IL-6 level (mRNA)” value (IL-6; HDFs, 30 μM for 5 h prior to IR, 11 days after IR) is reported as “mitigating IR-associated increases in levels of the SASP factors IL-6 and IL-8” and the “functional mitophagy (mitophagy events)” value [1, 5] is reported as “restoring functional mitophagy”. For the same molecule, the “rescue of suppressed basal mitophagy in the absence of p62” value ([1]; HDFs with p62 knockdown) was “unable to rescue the suppression of basal mitophagy”, the “IR-associated decrease in mitophagy” value ([1]; HDFs, 30 μM for 5 h prior to 20 Gy IR) was “preventing IR-associated decrease in mitophagy” and the cell motility [2] was “improving cell motility”. The “cellular proliferation capacity (EdU incorporation)” value [3] was “restoring cellular proliferation capacity” and the mitochondrial mass [4] was “restoring mitochondrial mass”.
